Measured values from ChEMBL document CHEMBL3856194, “N'-((2-(6-bromo-2-oxo-2H-chromen-3-yl)-1H-indol-3-yl)methylene)benzohydrazide as a probable Bcl-2/Bcl-xL inhibitor with apoptotic and anti-metastatic potential” (Eur J Med Chem, 2016).

Tests used:
[1] = Cytotoxicity against African green monkey Vero cells assessed as cell growth inhibition after 48 hrs by MTT assay; assay type: toxicity, cell-based; conditions: African green monkey (Chlorocebus sabaeus)
[2] = Cytotoxicity against human MCF7 cells assessed as cell growth inhibition after 48 hrs by MTT assay; assay type: functional, cell-based; conditions: MCF7, 48 h
MCF7 [3] = assay: Induction of apoptosis in human MCF7 cells assessed as viable cells after 24 to 48 hrs by Annexin V/7-AAD staining based flow cytometry (reference value: 72.30 %); assay type: functional
[4] = Cell cycle arrest in human MCF7 cells assessed as accumulation at sub-G0 phase at 0.5 uM after 18 to 24 hrs by propidium iodide staining based flow cytometry (reference value: 1.4 %); assay type: functional
MCF7 [5] = assay: Induction of apoptosis in human MCF7 cells assessed as necrotic cells after 24 to 48 hrs by Annexin V/7-AAD staining based flow cytometry (reference value: 6.75 %); assay type: functional
[6] = Cell cycle arrest in human MCF7 cells assessed as accumulation at G0/G1 phase at 0.5 uM after 18 to 24 hrs by propidium iodide staining based flow cytometry (reference value: 67 %); assay type: functional
MCF7 [7] = assay: Induction of apoptosis in human MCF7 cells assessed as late apoptotic cells after 24 to 48 hrs by Annexin V/7-AAD staining based flow cytometry (reference value: 16.05 %); assay type: functional
[8] = Cell cycle arrest in human MCF7 cells assessed as accumulation at S phase at 0.5 uM after 18 to 24 hrs by propidium iodide staining based flow cytometry (reference value: 8.5 %); assay type: functional
[9] = Cell cycle arrest in human MCF7 cells assessed as accumulation at G2/M phase at 0.5 uM after 18 to 24 hrs by propidium iodide staining based flow cytometry (reference value: 18.8 %); assay type: functional
MCF7 [10] = assay: Induction of apoptosis in human MCF7 cells assessed as early apoptotic cells after 24 to 48 hrs by Annexin V/7-AAD staining based flow cytometry (reference value: 4.90 %); assay type: functional
MCF7 [11] = assay: Selectivity index, ratio of IC50 for African green monkey Vero cells to IC50 for human MCF7 cells; assay type: functional

| Structure (SMILES) | IC50 at 48 h [1] [µM] | IC50 [2] [µM] | other results |
| --- | --- | --- | --- |
| O=C(N/N=C/c1c(-c2cc3ccccc3oc2=O)[nH]c2ccccc12)c1ccccc1F | > 200 | > 200 | – |
| O=C(N/N=C/c1c(-c2cc3ccccc3oc2=O)[nH]c2ccccc12)c1ccc(Cl)cc1F | > 200 | > 200 | – |
| O=C(N/N=C/c1c(-c2cc3ccccc3oc2=O)[nH]c2ccccc12)c1ccc(Cl)cc1 | > 200 | > 200 | – |
| CC[C@]1(O)C[C@H]2CN(CCc3c([nH]c4ccccc34)[C@@](C(=O)OC)(c3cc4c(cc3OC)N(C=O)[C@H]3[C@@](O)(C(=O)OC)[C@H](OC(C)=O)[C@]5(CC)C=CCN6CC[C@]43[C@@H]65)C2)C1 [VINCRISTINE] | 0.9 | 0.3 | Activity (MCF7 [3]): 56.1%; Activity [4]: 5.1%; Activity (MCF7 [5]): 23.45%; Activity [6]: 17.9%; Activity (MCF7 [7]): 17.7%; Activity [8]: 7.8%; Activity [9]: 54.6%; Activity (MCF7 [10]): 2.75%; Ratio IC50 (MCF7 [11]): 3 |
| O=C(N/N=C/c1c(-c2cc3ccccc3oc2=O)[nH]c2ccccc12)c1cccc(Br)c1 | > 200 | > 200 | – |
| O=C(N/N=C/c1c(-c2cc3ccccc3oc2=O)[nH]c2ccccc12)c1ccccc1 | 121 | > 200 | – |
| O=C(N/N=C/c1c(-c2cc3ccccc3oc2=O)[nH]c2ccccc12)c1ccccc1Cl | > 200 | 164 | – |
